ChEMBL document CHEMBL1131883, “Synthesis and evaluation of benzoxazinones as HIV-1 reverse transcriptase inhibitors. Analogs of Efavirenz (SUSTIVA)” (Bioorg Med Chem Lett, 1999)

Key:
[1] = target: Human immunodeficiency virus type 1 reverse transcriptase (Human immunodeficiency virus 1, UniProt Q72547); assay: Inhibitory activity against HIV-1 reverse transcriptase
[2] = target: Human immunodeficiency virus type 1 reverse transcriptase (Human immunodeficiency virus 1) (UniProt Q72547)

| SMILES | IC50 [1] | IC90 [2] |
| --- | --- | --- |
| CCCC#CC1(C(F)(F)F)OC(=O)Nc2ccc([N+](=O)[O-])cc21 (stereo not given) | 304 nM | 4.57 nM |
| CNc1ccc2c(c1)C(C#CC1CC1)(C(F)(F)F)OC(=O)N2 (stereo not given) | 608 nM | 9.02 nM |
| Nc1ccc2c(c1)C(C#CC1CC1)(C(F)(F)F)OC(=O)N2 (stereo not given) | 802 nM | 20.6 nM |
| CNc1ccc2c(c1)C(C#CC(C)C)(C(F)(F)F)OC(=O)N2 (stereo not given) | 473 nM | 10.2 nM |
| CC(=O)Nc1ccc2c(c1)C(C#CC1CC1)(C(F)(F)F)OC(=O)N2 (stereo not given) | > 2000 nM | 296 nM |
| CC(C)C#CC1(C(F)(F)F)OC(=O)Nc2ccc([N+](=O)[O-])cc21 (stereo not given) | 199 nM | 3.35 nM |
| O=C1Nc2ccc([N+](=O)[O-])cc2C(C#CC2CC2)(C(F)(F)F)O1 (stereo not given) | 209 nM | 0.83 nM |
| CCCC#CC1(C(F)(F)F)OC(=O)Nc2cccc(F)c21 (stereo not given) | 156 nM | 5.64 nM |
| O=C1Nc2cccc(F)c2C(C#CC2CC2)(C(F)(F)F)O1 (stereo not given) | 78 nM | 4.34 nM |
| CC(C)C#CC1(C(F)(F)F)OC(=O)Nc2ccc(N)cc21 (stereo not given) | 896 nM | 27.5 nM |
| CCC#CC1(C(F)(F)F)OC(=O)Nc2ccc([N+](=O)[O-])cc21 (stereo not given) | 276 nM | 2.23 nM |
| CCC#CC1(C(F)(F)F)OC(=O)Nc2ccc(N)cc21 (stereo not given) | 1890 nM | 45.7 nM |
| CC(=O)Nc1ccc2c(c1)C(C#CC(C)C)(C(F)(F)F)OC(=O)N2 (stereo not given) | > 2000 nM | 500 nM |
| CCC#CC1(C(F)(F)F)OC(=O)Nc2cccc(F)c21 (stereo not given) | 127 nM | 4.18 nM |
| CCCC#CC1(C(F)(F)F)OC(=O)Nc2ccc(N)cc21 (stereo not given) | 1510 nM | 33.5 nM |
